Patent US20150105252A1, “SUBSTITUTED PYRAZOLES AS HERBICIDES” (E I DU PONT DE NEMOURS AND COMPANY, priority 2013, published 2015)

How the values were obtained:
soybean = assay: Test C preemergence; type: in vivo, Glycine max
Procedure, shortened: (§1)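 Scores of 0 (no effect) to 100 (complete control) were assigned by eye after 13–15 days, comparing treated pots with controls. Soil-applied (preemergence) treatments went onto seeds in loam and sand; foliar (postemergence) treatments onto 1- to 4-leaf plants in peat medium.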

wheat = assay: Test C postemergence; type: in vivo, Triticum aestivum; conditions: for Plant response rating (scale of 0 to 100 where 0 is no effect and 100 is complete control), Wheat: 31 g ai/ha, visually evaluated after 13 to 15 days; for Wheat plant response rating / Plant response rating, Wheat: postemergence; for Wheat plant response rating: 62 g ai/ha, scale 0 to 100
Description: (§2) Seeds of plant species selected from blackgrass (Alopecurus myosuroides), ryegrass, Italian (Italian ryegrass, Lolium multiflorum), wheat (winter wheat, Triticum aestivum), galium (catchweed bedstraw, Galium aparine), corn (Zea mays), crabgrass, large (large crabgrass, Digitaria sanguinalis), foxtail, giant (giant foxtail, Setaria faberii), johnsongrass (Sorghum halepense), lambsquarters (Chenopodium album), morningglory (Ipomoea coccinea), nutsedge, yellow (yellow nutsedge, Cyperus esculentus), pigweed (redroot pigweed, Amaranthus retroflexus), ragweed (common ragweed, Ambrosia elation), soybean (Glycine max), barnyardgrass (Echinochloa crus-galli), oilseed rape (Brassica napus), waterhemp (common waterhemp, Amaranthus rudis), oat, wild (wild oat, Avena fatua), kochia (Kochia scoparia), Surinam grass (Brachiaria decumbens), foxtail, green (green foxtail, Setaria viridis), goosegrass (Eleusine indica), bromegrass, downy (downy bromegrass, Bromus tectorum), nightshade (eastern black nightshade, Solanum ptycanthum), cocklebur (common cocklebur, Xanthium strumarium), cupgrass, woolly (woolly cupgrass, Eriochloa villosa), bermudagrass (Cynodon dactylon), sunflower, (common oilseed sunflower, Helianthus annuus), Russian thistle (Salsola kali), and velvetleaf (Abutilon theophrasti) were planted into a blend of loam soil and sand and treated preemergence with test chemicals formulated in a non-phytotoxic solvent mixture which included a surfactant.
(§3) At the same time, plants selected from these crop and weed species and also chickweed (common chickweed, Stellaria media), canarygrass (littleseed canarygrass, Phalaris minor), and deadnettle (henbit deadnettle, Lamium amplexicaule), were planted in pots containing Redi-Earth® planting medium (Scotts Company, 14111 Scottslawn Road, Marysville, Ohio 43041) comprising spaghnum peat moss, vermiculite, wetting agent and starter nutrients and treated with postemergence applications of test chemicals formulated in the same manner. Plants ranged in height from 2 to 18 cm (1- to 4-leaf stage) for postemergence treatments. Treated plants and controls were maintained in a greenhouse for 13 to 15 days, after which time all species were compared to controls and visually evaluated. Plant response ratings, summarized in Table C, are based on a scale of 0 to 100 where 0 is no effect and 100 is complete control. A dash (-) response means no test result.

galium = assay: Test C preemergence; type: in vivo, Galium aparine
Procedure, shortened: as §1

lambsquarters = assay: Test C postemergence; type: in vivo, Chenopodium album; conditions: for Plant response rating (scale of 0 to 100 where 0 is no effect and 100 is complete control), Lambsquarters: 31 g ai/ha, visually evaluated after 13 to 15 days; for Lambsquarters plant response rating / Plant response rating, Lambsquarters: postemergence; for Lambsquarters plant response rating: 62 g ai/ha, scale 0 to 100
Procedure, shortened: as §1

waterhemp = assay: Test C preemergence; type: in vivo, Amaranthus rudis
Procedure, shortened: as §1

pigweed = assay: Test C preemergence; type: in vivo, Amaranthus retroflexus
Procedure, shortened: as §1

ragweed = assay: Test C preemergence; type: in vivo, Ambrosia elation
Procedure, shortened: as §1

velvetleaf = assay: Test A postemergence; type: in vivo, Abutilon theophrasti
Procedure, shortened: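 Both timings tested concurrently in loam/sand soil: preemergence by directed soil spray, postemergence on plants of 2–10 cm at the one- to two-leaf stage. Greenhouse holding period was approximately 10 days before visual injury assessment (0–100, 0 = no effect).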

foxtail, giant = assay: Test C postemergence; type: in vivo, Setaria faberii; conditions: for Plant response rating (scale of 0 to 100 where 0 is no effect and 100 is complete control), Foxtail, Giant: 31 g ai/ha, visually evaluated after 13 to 15 days; for Foxtail, Giant plant response rating / Plant response rating, Foxtail, Giant: postemergence; for Foxtail, Giant plant response rating: 62 g ai/ha, scale 0 to 100
Procedure, shortened: as §1

chickweed = assay: Test C postemergence; type: in vivo, Stellaria media; conditions: for Plant response rating (scale of 0 to 100 where 0 is no effect and 100 is complete control), Chickweed: 31 g ai/ha, visually evaluated after 13 to 15 days; for Chickweed plant response rating / Plant response rating, Chickweed: postemergence; for Chickweed plant response rating: 62 g ai/ha, scale 0 to 100
Description: as §2, §3

corn = assay: Test C preemergence; type: in vivo, Zea mays
Procedure, shortened: as §1

johnsongrass = assay: Test C postemergence; type: in vivo, Sorghum halepense; conditions: for Plant response rating (scale of 0 to 100 where 0 is no effect and 100 is complete control), Johnsongrass: 31 g ai/ha, visually evaluated after 13 to 15 days
Procedure, shortened: as §1

[1] = Preemergence, 16 g ai/ha, scale 0 to 100
[2] = preemergence, 31 g ai/ha, scale 0 to 100 (0 no effect, 100 complete control), 13 to 15 days
[3] = preemergence, 62 g ai/ha, 13 to 15 days, scale 0 to 100, 0 = no effect, 100 = complete control
[4] = preemergence, 125 g ai/ha, scale 0 to 100, 0 is no effect, 100 is complete control
[5] = 125 g ai/ha, scale 0 to 100, 0 no effect, 100 complete control
[6] = Postemergence, 500 g ai/ha, visual rating after approx. 10 days, 0 to 100 scale (0 no effect, 100 complete control)
[7] = postemergence, 125 g ai/ha, about 10 days, visual rating on 0 to 100 scale (0 no effect, 100 complete control)
[8] = postemergence, 125 g ai/ha, scale 0 to 100, 0 no effect, 100 complete control
[9] = preemergence, 31 g ai/ha, visual rating, scale 0 to 100 (0 no effect, 100 complete control), 13 to 15 days
[10] = 250 g ai/ha, scale 0 to 100 (0 no effect, 100 complete control)
[11] = preemergence, 62 g ai/ha, scale 0 to 100 (0 no effect, 100 complete control), 13 to 15 days

CCONC(=O)c1cc(CC)n(Cc2ccnc(C(F)(F)F)c2)n1 [Compound 77]
Plant response rating, Soybean (soybean; [1]): 0
Soybean plant response rating (soybean; [2]): 10
Plant response rating, Soybean (soybean; [3]): 20
Soybean plant response rating (soybean; [4]): 50
Plant response rating (scale of 0 to 100), Wheat (wheat; Postemergence, 16 g ai/ha): 0
Plant response rating (scale of 0 to 100 where 0 is no effect and 100 is complete control), Wheat (wheat; Postemergence): 0
Wheat plant response rating (wheat): 5
Plant response rating, Wheat (wheat; [5]): 5
Plant response rating, Galium (galium; [1]): 0
Galium plant response rating (galium; [2]): 0
Plant response rating, Galium (galium; [3]): 5
Galium plant response rating (galium; [4]): 10
Plant response rating (scale of 0 to 100), Lambsquarters (lambsquarters; Postemergence, 16 g ai/ha): 15
Plant response rating (scale of 0 to 100 where 0 is no effect and 100 is complete control), Lambsquarters (lambsquarters; Postemergence): 35
Lambsquarters plant response rating (lambsquarters): 35
Plant response rating, Lambsquarters (lambsquarters; [5]): 70
Plant response rating, Waterhemp (waterhemp; [1]): 70
Waterhemp plant response rating (waterhemp; [2]): 98
Plant response rating, Waterhemp (waterhemp; [3]): 98
Waterhemp plant response rating (waterhemp; [4]): 100
Plant response rating, Pigweed (pigweed; [1]): 70
Pigweed plant response rating (pigweed; [2]): 100
Plant response rating, Pigweed (pigweed; [3]): 100
Pigweed plant response rating (pigweed; [4]): 100
Plant response rating, Ragweed (ragweed; [1]): 10
Ragweed plant response rating (ragweed; [2]): 35
Plant response rating, Ragweed (ragweed; [3]): 70
Ragweed plant response rating (ragweed; [4]): 85
Velvetleaf plant response rating (velvetleaf; [6]): 100
Velvetleaf plant response rating (velvetleaf; [7]): 80
Plant response rating (scale of 0 to 100), Foxtail, Giant (foxtail, giant; Postemergence, 16 g ai/ha): 5
Plant response rating (scale of 0 to 100 where 0 is no effect and 100 is complete control), Foxtail, Giant (foxtail, giant; Postemergence): 5
Foxtail, Giant plant response rating (foxtail, giant): 10
Plant response rating, Foxtail, Giant (foxtail, giant; [5]): 20
Plant response rating (scale of 0 to 100), Chickweed (chickweed; Postemergence, 16 g ai/ha): 50
Plant response rating (scale of 0 to 100 where 0 is no effect and 100 is complete control), Chickweed (chickweed; Postemergence): 50
Chickweed plant response rating (chickweed): 55
Plant response rating, Chickweed (chickweed; [5]): 60
Plant response rating, Corn (corn; [1]): 0
Corn plant response rating (corn; [2]): 0
Plant response rating, Corn (corn; [3]): 15
Corn plant response rating (corn; [4]): 55
Plant response rating (scale of 0 to 100), Johnsongrass (johnsongrass; Postemergence, 16 g ai/ha): 5
Plant response rating (scale of 0 to 100 where 0 is no effect and 100 is complete control), Johnsongrass (johnsongrass; Postemergence): 5
Johnsongrass plant response rating (johnsongrass; postemergence, 62 g ai/ha, scale 0 to 100): 5
Plant response rating, Johnsongrass (johnsongrass; [8]): 5

CCc1cc(-c2ccc(C(F)(F)F)cc2)nn1Cc1ccnc(C(F)(F)F)c1 [Compound 110]
Plant response rating (scale of 0 to 100), Soybean (soybean; Preemergence, 250 g ai/ha): 20
Soybean plant response rating (soybean; [9]): 10
Soybean plant response rating (soybean; [4]): 15
Plant response rating (scale of 0 to 100 where 0 is no effect and 100 is complete control), Wheat (wheat; Postemergence): 5
Wheat plant response rating (wheat): 5
Plant response rating, Wheat (wheat; [10]): 5
Plant response rating, Wheat (wheat; [5]): 5
Plant response rating (scale of 0 to 100), Galium (galium; Preemergence, 250 g ai/ha): 100
Galium plant response rating (galium; [9]): 50
Galium plant response rating (galium; [11]): 90
Plant response rating (scale of 0 to 100 where 0 is no effect and 100 is complete control), Lambsquarters (lambsquarters; Postemergence): 40
Lambsquarters plant response rating (lambsquarters): 75
Plant response rating, Lambsquarters (lambsquarters; [10]): 98
Plant response rating, Lambsquarters (lambsquarters; [5]): 85
Plant response rating (scale of 0 to 100), Waterhemp (waterhemp; Preemergence, 250 g ai/ha): 100
Waterhemp plant response rating (waterhemp; [9]): 100
Waterhemp plant response rating (waterhemp; [11]): 100
Waterhemp plant response rating (waterhemp; [4]): 100
Plant response rating (scale of 0 to 100), Pigweed (pigweed; Preemergence, 250 g ai/ha): 100
Pigweed plant response rating (pigweed; [9]): 95
Pigweed plant response rating (pigweed; [11]): 100
Pigweed plant response rating (pigweed; [4]): 100
Plant response rating (scale of 0 to 100), Ragweed (ragweed; Preemergence, 250 g ai/ha): 75
Ragweed plant response rating (ragweed; [9]): 35
Ragweed plant response rating (ragweed; [11]): 35
Ragweed plant response rating (ragweed; [4]): 60
Velvetleaf plant response rating (velvetleaf; [6]): 100
Velvetleaf plant response rating (velvetleaf; [7]): 90
Plant response rating (scale of 0 to 100 where 0 is no effect and 100 is complete control), Foxtail, Giant (foxtail, giant; Postemergence): 35
Foxtail, Giant plant response rating (foxtail, giant): 40
Plant response rating, Foxtail, Giant (foxtail, giant; [10]): 70
Plant response rating, Foxtail, Giant (foxtail, giant; [5]): 60
Plant response rating (scale of 0 to 100 where 0 is no effect and 100 is complete control), Chickweed (chickweed; Postemergence): 70
Chickweed plant response rating (chickweed): 70
Plant response rating, Chickweed (chickweed; [10]): 95
Plant response rating, Chickweed (chickweed; [5]): 90
Plant response rating (scale of 0 to 100), Corn (corn; Preemergence, 250 g ai/ha): 10
Corn plant response rating (corn; [9]): 5
Corn plant response rating (corn; [11]): 5
Corn plant response rating (corn; [4]): 5
Plant response rating (scale of 0 to 100 where 0 is no effect and 100 is complete control), Johnsongrass (johnsongrass; Postemergence): 40
Plant response rating, Johnsongrass (johnsongrass; postemergence, 250 g ai/ha, scale 0 to 100 (0 no effect, 100 complete control)): 90
Plant response rating, Johnsongrass (johnsongrass; [8]): 75
